Drawing on PubChem BioAssay (NCI), this text covers TGI and GI50 for 9 compounds.

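Cultured in 96-well plates, cells were exposed to test compound for 48 hours across five concentrations. Abbreviation: GI50, concentration required for 50% inhibition of growth. TGI: total growth inhibition.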

Common to all, as to experiment: NCI tumour cell line growth inhibition, 48 h
In assay [1] the test system is HCT-116 colon.
For assay [2], the system named is HOP-92 NSCLC.
Assay [3] has as its system KM12 colon.
Assay [4] has as its system PC-3 prostate.
The subject of assay [5] is SK-MEL-28 melanoma.
Assay [6] deals with SN12C renal.
In assay [7] the test system is SR leukemia.
Assay [8] concerns TK-10 renal.
Assay [9] has as its system U251 CNS.
For assay [10], the system named is UACC-62 melanoma.

In the case of `C=C(C)COc1ccc2c(c1)CCC1C2CCC2(C)C(=O)/C(=N/O)CC12` (configuration not stated), the TGI in assay [1] turned out to be 3.08 µM; in assay [2] it was 10.4 µM; in assay [3], 5.77 µM; in [4], 10.5 µM; in assay [5], 33.3 µM; in [6], 14 µM. The TGI in assay [7] was 4.14 µM; in [8] it was 5.58 µM; in assay [9] it was 16.3 µM; in [10], 28.5 µM.

As to `CCOC(=O)C#Cc1cccc(C#CC(=O)OCC)c1`, the TGI in [1] is 7.1 µM; in assay [2] it was 11.8 µM; in [3], 15.2 µM; in [4] it was 14.9 µM; in assay [5], 9.99 µM; in assay [6], 8.21 µM. Further, the TGI in assay [7] turned out to be 3.25 µM; in assay [8], 10.6 µM; in [9], 9.87 µM; in assay [10] it was 9.53 µM.

With `CC(C)(C)N1CC1CNC(=O)C(=O)NCC1CN1C(C)(C)C` (configuration not stated), the TGI in assay [1] is 10.8 µM; in assay [2] it was 33.3 µM; in assay [3], 12.3 µM; in assay [4] it was > 100 µM; in assay [5], 11.1 µM; in assay [6] it was 15.7 µM. Besides, the TGI in assay [7] is 13.3 µM; in assay [8], > 100 µM; in assay [9], 7.29 µM; in [10], 6.82 µM.

As to `Clc1nc(Cl)c2ncn(-c3ccccc3)c2n1`, the GI50 is 2 µM in assay [1]; 2.15 µM in assay [2]; 12.8 µM in [3]; 5.29 µM in assay [4]; 4.69 µM in [5]; 7.45 µM in assay [6]. In addition, the GI50 in [7] is 2.73 µM; in assay [8] it was 7.46 µM; in assay [9] it was 1.8 µM; in assay [10], 11.3 µM. In addition, the TGI in assay [1] was 4.69 µM; in assay [2], 5.51 µM; in assay [3], 25.8 µM; in assay [4], 20.1 µM; in assay [5], 17.3 µM; in assay [6], 21.5 µM. The TGI in [7] came out at 9.51 µM; in assay [8] it was 20.9 µM; in assay [9], 3.73 µM; in assay [10], 25.3 µM.

`Cn1cc(-c2csc(-c3ccccc3)n2)c2cccnc21`: the GI50 in [1] was 13.8 µM; in assay [2] it was 1.81 µM; in [3], 12.5 µM; in assay [4], 14.4 µM; in assay [5], 15.7 µM; in assay [6], 15 µM. The GI50 in [7] was 9.24 µM; in assay [8], 17.9 µM; in assay [9], 13.6 µM; in [10], 12.3 µM. Further, the TGI stood at 26.7 µM in assay [1]; 15.4 µM in [2]; 25 µM in assay [3]; 39.1 µM in assay [4]; 31.5 µM in [5]; 28.2 µM in [6]. Also, the TGI in assay [7] was determined as 62.4 µM; in assay [8], 39.1 µM; in assay [9], 28 µM; in assay [10] it was 25.5 µM.

For the compound `Nc1nc2ccc(CNc3ccc(C(=O)NC(CC(=O)O)C(=O)O)cc3)cc2c(=O)[nH]1` (configuration not stated), the GI50 in [1] was 0.478 µM; in [2] it was > 51 µM; in assay [3] it was 4.3 µM; in assay [4], 0.655 µM; in [5], > 96 µM; in assay [6], 3.86 µM. The GI50 in assay [7] is 0.52 µM; in [8], > 100 µM; in assay [9] it was 7.49 µM; in assay [10], 5.89 µM. Further, the TGI in assay [1], in [2], in [3], in assay [4], in [5] and in [6] was > 100 µM in each case. Besides, the TGI in [7], in assay [8], in assay [9] and in assay [10] was > 100 µM each time.

As for `CCN1C(=O)/C(=c2\sc3n(c2=O)C2C(NN=3)N(CC)C(=O)N2CC)c2ccccc21` (configuration not stated), the GI50 in assay [1] is 0.463 µM; in [2] it was 1.13 µM; in assay [3], 0.469 µM; in [4], 0.46 µM; in assay [5], 0.907 µM; in [6], 0.615 µM. In addition, the GI50 is 0.357 µM in [7], 5.97 µM in assay [8], 0.577 µM in assay [9] and 0.426 µM in assay [10]. Also, the TGI in [1] was > 54.3 µM; in [2], 25.6 µM; in assay [3], > 73.4 µM; in [4] it was > 100 µM; in assay [5], > 100 µM; in [6], > 100 µM. Also, the TGI in assay [7] was > 100 µM; in assay [8] it was 24.6 µM; in assay [9], 30.1 µM; in assay [10], 30 µM.

For the compound `COc1cccc2nc(Nc3cccc(NC(=O)c4ccc(N5CCN(C)CC5)c(C(F)(F)F)c4)c3)ccc12`, the GI50 in [1] was 0.869 µM; in [2] it was 0.854 µM; in assay [3], 1.09 µM; in [4], 1.26 µM; in [5], 0.896 µM; in assay [6], 1.7 µM. Moreover, the GI50 in assay [7] is 1.13 µM; in [8] it was 2.01 µM; in assay [9] it was 0.885 µM; in [10], 1.06 µM. In addition, the TGI came to 1.89 µM in assay [1]; 4.03 µM in assay [2]; 2.56 µM in [3]; 4.51 µM in assay [4]; 1.64 µM in assay [5]; 7.47 µM in [6]. Further, the TGI was 3.45 µM in assay [7], 6.62 µM in assay [8], 1.68 µM in assay [9] and 2.28 µM in assay [10].

For the compound `CCCCCCCCCCCCCCCC(=O)NS(=O)(=O)OC[C@H]1O[C@@H](n2cnc3c(N)ncnc32)[C@H](O)[C@@H]1O`, the GI50 in assay [1] was 0.0719 µM; in assay [2] it was < 0.024 µM; in assay [3] it was < 0.0421 µM; in assay [6], 0.262 µM; in [7], < 0.021 µM; in assay [8], < 0.0163 µM. The GI50 is < 0.0162 µM in [9] and 0.215 µM in assay [10]. For the same compound, the TGI in assay [1] was 1.21 µM; in assay [3], 3.01 µM; in assay [4], < 0.0166 µM; in [5], 1.66 µM; in assay [6], 1.45 µM; in assay [7] it was 4.38 µM. Also, the TGI in [8] is < 0.0259 µM; in [9], < 0.0277 µM; in [10] it was 0.599 µM.
